Measured values: patent publication US20020147177A1, “Formulation of artemisinin” (priority 2001, published 2002)
In brackets after ≈: the same amount, converted by molar mass.

Experiment: Solubility in water, shaken five days, HPLC
Format: physicochemical
Conditions: thermodynamic from solid, room temperature (25° C.)
Protocol: […] of each of the complexes and artemisinin crystals were separately shaken in 25 ml of water maintained at room temperature (25° C.) for five days. The solution was then filtered through a 0.2 μu membrane filter and suitably diluted before analysis. An analysis of the drug concentration in the solution was determined by high performance liquid chromatography using a method reported by Chan et al (1997).

solubility at 5 days: 55.7 ± 1.75 µg/mL (≈ 197 µM)
Compound: C[C@@H]1CC[C@H]2[C@@H](C)C(=O)O[C@@H]3O[C@@]4(C)CC[C@@H]1[C@]32OO4 [artemisinin crystals, artemisinin]
